Results from PubChem BioAssay (NCI).
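Briefly, cells in 96-well plates were exposed to five compound concentrations for 48 h, and endpoints were estimated by linear interpolation. TGI marks complete inhibition of growth.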

Experiments:
Assay in all cases: NCI tumour cell line growth inhibition, 48 h
[1] = test system: COLO 205 colon
[2] = test system: XF 498 CNS
[3] = test system: RPMI-8226 leukemia
[4] = test system: DMS 273 small cell lung
[5] = test system: CCRF-CEM leukemia
[6] = test system: HOP-18 NSCLC
[7] = test system: A549 NSCLC
[8] = test system: DMS 114 small cell lung
[9] = test system: NCI-H522 lung
[10] = test system: SR leukemia
[11] = test system: HCT-15 colon
[12] = test system: UACC-62 melanoma
[13] = test system: SNB-78 CNS
[14] = test system: SK-OV-3 ovarian
[15] = test system: HCT-116 colon
[16] = test system: SK-MEL-5 melanoma
[17] = test system: U251 CNS
[18] = test system: HOP-62 NSCLC
[19] = test system: OVCAR-8 ovarian
[20] = test system: 786-0 renal
[21] = test system: MALME-3M melanoma
[22] = test system: OVCAR-3 ovarian
[23] = test system: NCI-H460 lung
[24] = test system: KM12 colon
[25] = test system: SNB-75 CNS
[26] = test system: M19-MEL melanoma
[27] = test system: HL-60(TB) leukemia
[28] = test system: SW-620 colon
[29] = test system: K-562 leukemia
[30] = test system: NCI-H226 lung
[31] = test system: HCC-2998 colon
[32] = test system: DLD-1 colon
[33] = test system: KM20L2 colon
[34] = test system: SF-539 CNS
[35] = test system: MOLT-4 leukemia
[36] = test system: HT29 colon
[37] = test system: ACHN renal
[38] = test system: IGROV1 ovarian
[39] = test system: A498 renal
[40] = test system: HOP-92 NSCLC
[41] = test system: CAKI-1 renal
[42] = test system: OVCAR-4 ovarian
[43] = test system: SF-295 CNS
[44] = test system: EKVX NSCLC
[45] = test system: LXFL 529 NSCLC
[46] = test system: SK-MEL-28 melanoma
[47] = test system: SF-268 CNS
[48] = test system: TK-10 renal
[49] = test system: SNB-19 CNS
[50] = test system: UO-31 renal
[51] = test system: SN12C renal
[52] = test system: M14 melanoma
[53] = test system: RXF-631 renal
[54] = test system: OVCAR-5 ovarian
[55] = test system: SK-MEL-2 melanoma
[56] = test system: UACC-257 melanoma
[57] = test system: NCI-H23 lung
[58] = test system: RXF 393 renal
[59] = test system: LOX IMVI melanoma

In the case of `Cc1cccc(C)c1NC(=O)/C(=N/NC(N)=S)C(C)C(=O)c1ccc(Cl)cc1` (stereo not given), the TGI [1] is reported as > 100 µM, the TGI [2] is reported as > 100 µM and the TGI [3] is reported as > 100 µM. For the same compound, the TGI [4] was > 100 µM, the TGI [5] was > 100 µM and the TGI [6] was > 100 µM. The TGI [7] was > 100 µM, the TGI [8] was > 100 µM and the TGI [9] was > 100 µM. For the same compound, the TGI [10] was > 100 µM, the TGI [11] was > 100 µM and the TGI [12] was > 100 µM. The TGI [13] was > 100 µM, the TGI [14] was > 100 µM and the TGI [15] was > 100 µM. For the same compound, the TGI [16] was > 100 µM, the TGI [17] was > 100 µM and the TGI [18] was > 100 µM. For the same compound, the TGI [19] was > 100 µM, the TGI [20] was > 100 µM and the TGI [21] was > 100 µM. For the same compound, the TGI [22] was > 100 µM, the TGI [23] was > 100 µM and the TGI [24] was > 100 µM. The TGI [25] was > 100 µM, the TGI [26] was > 100 µM and the TGI [27] was > 100 µM. The TGI [28] was > 100 µM, the TGI [29] was > 100 µM and the TGI [30] was > 100 µM. For the same compound, the TGI [31] was > 100 µM, the TGI [32] was > 100 µM and the TGI [33] was > 100 µM. For the same compound, the TGI [34] was > 100 µM, the TGI [35] was > 100 µM and the TGI [36] was > 100 µM. For the same compound, the TGI [37] was > 100 µM, the TGI [38] was > 100 µM and the TGI [39] was > 100 µM. The TGI [40] was > 100 µM, the TGI [41] was > 100 µM and the TGI [42] was > 100 µM. The TGI [43] was > 100 µM, the TGI [44] was > 100 µM and the TGI [45] was > 100 µM. For the same compound, the TGI [46] was > 100 µM, the TGI [47] was > 100 µM and the TGI [48] was > 100 µM. For the same compound, the TGI [49] was > 100 µM, the TGI [50] was > 100 µM and the TGI [51] was > 100 µM. For the same compound, the TGI [52] was > 100 µM, the TGI [53] was > 100 µM and the TGI [54] was > 100 µM. The TGI [55] was > 100 µM, the TGI [56] was > 100 µM and the TGI [57] was > 100 µM.

`Cc1ccc(/C=C/C(=O)C(C)(C)CN2CCCCC2)cc1` showed a TGI [1] of 17.2 µM, a TGI [2] of 25.3 µM and a TGI [3] of 14.7 µM. For the same compound, the TGI [4] was 11.7 µM, the TGI [5] was 10.4 µM and the TGI [7] was 33.1 µM. The TGI [9] was 13.7 µM, the TGI [11] was 20.1 µM and the TGI [12] was 30.3 µM. It also gave a TGI [13] of 29.7 µM, a TGI [14] of 26.3 µM and a TGI [15] of 22.6 µM. The TGI [16] was 8.36 µM, the TGI [17] was 27.5 µM and the TGI [18] was 29.5 µM. It also gave a TGI [19] of 10.3 µM, a TGI [20] of 18.9 µM and a TGI [21] of 29.3 µM. For the same compound, the TGI [22] was 8.65 µM, the TGI [23] was 23.5 µM and the TGI [24] was 13.4 µM. The TGI [25] was 19.5 µM, the TGI [58] was 18.7 µM and the TGI [26] was 31.1 µM. It also gave a TGI [28] of 7.99 µM, a TGI [29] of 12 µM and a TGI [30] of 27.6 µM. It also gave a TGI [31] of 28.8 µM, a TGI [59] of 23.4 µM and a TGI [33] of 10.7 µM. For the same compound, the TGI [34] was 16.8 µM, the TGI [35] was 7.55 µM and the TGI [36] was 12 µM. For the same compound, the TGI [37] was 23.7 µM, the TGI [38] was 35.6 µM and the TGI [39] was 19.5 µM. It also gave a TGI [41] of 14.2 µM, a TGI [42] of 22.9 µM and a TGI [43] of 21.3 µM. For the same compound, the TGI [44] was 14.3 µM, the TGI [45] was 19.4 µM and the TGI [46] was 33.4 µM. It also gave a TGI [47] of 36.2 µM, a TGI [48] of 24.1 µM and a TGI [49] of 8.73 µM. The TGI [50] was 22 µM, the TGI [51] was 15.1 µM and the TGI [52] was 20.2 µM. For the same compound, the TGI [53] was 32.1 µM, the TGI [54] was 30 µM and the TGI [55] was 23.4 µM. It also gave a TGI [56] of 23.2 µM and a TGI [57] of 30.5 µM.
